The record followed here is patent US20050113348A1, “Vitamin D and vitamin D analogs or derivatives as new anti-hypertensive agents” (priority 2003, published 2005).

Data set [1] in a line: Blood ionized calcium and survival of treated mice. In kind it is in vivo, mouse. Conditions: normal mice. The text has this: Two-month old wildtype mice were fed the normal diet supplemented with 2.5% strontium chloride for 7 weeks before sacrifice. A. Northern blot analysis of renin mRNA expression in the kidney from non-treated and strontium-treated wildtype mice. Each lane represents an individual animal. B. Quantitative results of the northern analysis. C. Blood ionized calcium concentration determined at the end of the treatment (n=5 in each group). In both b and c, NT, non-treated; STR, strontium-treated, *, P<0.01 vs. NT value.
(A) Blood ionized calcium levels. Normal mice (n=5) were treated with vehicle (control), 1,25(OH)2D3 (VD3) or compound #9 at a daily dose of 1.5 μg/kg body weight for one week. […] (B) Renin mRNA levels in the kidneys of treated mice, as determined by quantitative Northern blots. *, P<0.01.
Measurement of blood and urine parameters. The concentration of blood ionized calcium was determined using a Ciba/Coming 634 Ca^++/pH analyzer (Chiron Diagnostics, East Walpole, Mass.) from 50 μl of whole blood obtained from tail snipping. Blood glucose concentrations were determined by using One Touch Sure Step test strips (Life Scan, Milpitas, Calif.). Serum intact parathyroid hormone (iPTH) was determined using a commercial ELISA kit (Immutopics, San Clemente, Calif.). The concentration of serum and urinary Na^+, K^+, and creatinine was determined by a Beckman Coulter CX5 Autoanalyzer as described by Li et al. (2001).

Data set [2] relates to renin mRNA in the kidney. Description: Renin mRNA in the kidney of treated mice (Northern blot). To be noted: wildtype mice. In kind it is in vivo, mouse. Here is the method: A. […] The 2 doses were given in two consecutive days at 9 am. The 5 doses were given in three consecutive days at 9 am and 7 pm for the first two days, and at 9 am on the third day. Total renal RNA was isolated 6 hr after the last injection. Renin, calbindin-D9k (CaBP-D9k) and 36B4 mRNA levels were determined by Northern blot analysis. B. Quantitation of renin mRNA levels.
(A) Blood ionized calcium levels.
As a control for vitamin D action, Calbindin-D9k stimulation was measured. Quantitative data were presented below the Northern blot gels.
Total kidney RNAs were separated on agarose gels (20 μg/lane). Membranes were hybridized sequentially with 32P-labeled renin and 36B4 cDNA probes. The relative amount of renin mRNA was quantitated after being normalized with 36B4 mRNA levels. […] (B) Quantitative results-from Northern blots in (A).
Animals and treatment. […] VDR^−/− and Gcm2^−/− mice were generated through breeding of heterozygous mice and identified by PCR with tail genomic DNA as the template, and the wild-type littermates were used as controls. […] To increase the sodium load, mice were fed the normal rodent diet supplemented with 8% NaCl for 1, 3, 5 and 7 days. […] Wild-type mice were injected (i.p.) with vehicle or 30 pmole of 1,25(OH)2D3 dissolved in propylene glycol. Mice were sacrificed by exsanguination under anesthesia and the blood was collected into ice-cold tubes for serum isolation, or into ice-cold tubes containing 50 μl of EDTA (pH 8.0) and 100 U/ml aprotinin for plasma isolation. The determination of water and food intake, as well as urine collection, were carried out by using metabolic cages.
RNA isolation and northern blot. The kidney and liver were dissected and immediately placed into the Trizol Reagent (Invitrogen, Grand Island, N.Y.) for total RNA isolation according to the manufacturer's instruction. […] Mouse renin and angiotensinogen cDNA probes were labeled with ^32P-dATP (ICN, Costa Mesa, Calif.) using the Prime-a-gene Labeling System (Promega, Madison, Wis.). After hybridization and washing, membranes were exposed to X-ray films at −80° C. for autoradiography. The relative amount of mRNA was quantitated using a Phospholmager (Molecular Dynamics, Sunnyvale, Calif.) and normalized with 36B4 mRNA.

Data set [3] concerns 4.1 kb renin gene promoter (Ren-1c), As4.1-hVDR cells. Description: Renin gene promoter luciferase reporter assay in As4.1-hVDR cells. In kind it is cell-based, mouse. Conditions: 10^−8 M. An excerpt: As4.1-hVDR cells were transfected with pGL-4.1 kb-Luc, and treated with ethanol (E), 10^−8 M of 1,25(OH)2D3 (VD3) and different analogues as indicated.
A. Expression of hVDR mRNA in stable As4.1 clones. P, parental As4.1 cells; #57, As4.1 clone 57 stably transfected with pcDNA-hVDR; V, As4.1 clone stably transfected with the empty vector pcDNA3.1. B. Renin mRNA expression in As4.1 clone V (Vector) and #57 treated with ethanol (E) or different doses of 1,25(OH)2D3 as indicated. c. As4.1-hVDR cells (clone #57) were transfected with pGL3-Control, pGL-4.1 kb or pGL-117 bp luciferase reporter plasmid and then treated with ethanol (closed bar) or 10^−8 M of 1,25(OH)2D3 (open bar). Luciferase activity was determined 48 hr after transfection. Similar results were obtained in other stable clones.
Renin gene promoter analysis. Plasmid pR1C-4.1 CAT that contains 4.1 kb 5′-flanking sequence of mouse Ren-1^c gene (Petrovic et al. 1996) was provided by Dr. K. W. Gross (Roswell Park Cancer Institute, Buffalo, N.Y.). To generate pGL-117 bp reporter plasmid, the 123 bp renin minimal promoter fragment (+6 to −117) was released from pR1C-4.1 CAT with XbaI and BamHI and inserted into the HindIII site of pGL3-basic vector (Promega, Madison, Wis.). To generate pGL-4.1 kb reporter plasmid, the BamHI fragment (−4.1 kb to −118 bp) from pRI C-4.1 CAT was inserted into the BglII site of pGL-117 bp. To analyze the activity of renin gene promoter, As4.1-hVDR cells were transfected with the reporter plasmids by electroporation according to Shi et al. (2001) using a Bio-Rad Gene Pulser (Bio-Rad, Hercules, Calif.). pCMV-β-gal plasmid was co-transfected as an internal control. pGL3-control plasmid (Promega) was used as the positive control. The transfected cells were treated with ethanol or 10^−8 M of 1,25(OH)2D3 in Opti-MEM medium (Invitrogen) containing 2% charcoal-treated FBS four hr after electroporation, and luciferase activity was determined at 48 hr after initial transfection, using the Luciferase Assay System (Promega). Luciferase activity was normalized to β-gal activity obtained from the same electroporation, and presented as fold induction based on the basal activity of pGL3-basic empty vector determined in the same experiment.
(Reporter assays use an easily measured gene product as a stand-in for the process of interest.)

Take `C=C1/C(=C\C=C2/CCC[C@]3(C)[C@@H]([C@H](C)CCCC(C)(C)O)CC[C@@H]23)C[C@@H](O)C[C@@H]1O` [1,25-dihydroxyvitamin D3]: the “Deaths on day 7” value in data set [1] (daily dose 1.5 μg/kg body weight) was 2 animals out of the 5 mice. In addition, the Blood calcium level result in data set [1] (daily dose 1.5 μg/kg body weight for one week) is given as “severe hypercalcemia”. Besides, the “mRNA of renal calbindin-D9k” value in data set [2] (30 pmole/dose i.p., control vitamin D target gene) is “significantly increased”. In addition, the results for the “Decrease of renal renin expression” value in data set [2] (five doses of 30 pmole i.p. in three days) and in data set [2] (two doses of 30 pmole/dose i.p. in two consecutive days) were 50% and 35%, respectively. For the same compound, in data set [3] (As4.1-hVDR cells), the “Effect on the activity of the SV40 promoter in pGL3-Control plasmid” value is “no effect”. In addition, in data set [3] (pGL-4.1 kb, luciferase at 48 hr after transfection), the “Reduction of the activity of the 4.1 kb renin gene promoter” value was “more than 80%”.
